Activity calls are given as the source filed them. The rule behind the calls is not given here.
Legend:
[1] = Oral bioavailability in C57BL/6 mouse allografted with mouse MC38 cells at 50 mg/kg; assay type: ADME, organism-based; settings: in vivo
[2] = test system: MC-38; test: In vivo antitumor activity against mouse MC38 cells allografted in C57BL/6 mouse assessed as decrease in […] positive cells in tumor at 50 mg/kg, po treated 5 days after cell inoculation 19 th day by immunofluorescence analysis; assay type: functional, organism-based; settings: time 15.0 day
[3] = test system: Mus musculus; test: (§1) Immunomodulatory effect in C57BL/6 mouse allografted mouse MC38 cells assessed as increase in tumor infiltrating lymphocytes by measuring increase in CD4+ T helper cells in mouse lymph nodes at 50 mg/kg, po treated 5 days after cell inoculation 19 th day by flow cytometry analysis (reference value: 15.5%); assay type: functional; settings: time 15 day
[4] = test system: Mus musculus; test: (§2) Immunomodulatory effect in C57BL/6 mouse allografted mouse MC38 cells assessed as increase in tumor infiltrating lymphocytes by measuring increase in CD4+ T helper cells in mouse blood at 50 mg/kg, po treated 5 days after cell inoculation 19 th day by flow cytometry analysis (reference value: 0.27%); assay type: functional; settings: time 15 day
[5] = test system: Mus musculus; test: as §2, with “[…]” for “CD4+”, “spleen” for “blood”, “13.6%)” for “0.27%)”; assay type: functional; settings: time 15 day
[6] = test system: Mus musculus; test: Induction of PD-L1 expression in tumor in C57BL/6 mouse allografted with mouse MC38 cells in presence of NP19 PD-L1 inhibitor at 50 mg/kg, po treated 5 days after cell inoculation 19 th day by immunofluorescence analysis; assay type: functional, organism-based; settings: time 15.0 day
[7] = test system: Mus musculus; test: as §2, with “spleen” for “blood”, “10.8%)” for “0.27%)”; assay type: functional; settings: time 15 day
[8] = test system: MC-38; test: In vivo antitumor activity against mouse MC38 cells allografted in C57BL/6 mouse assessed as tumor growth inhibition at 50 mg/kg, po treated 5 days after cell inoculation 19 th day relative to control; assay type: functional; settings: MC-38, 360 h, time 15 day, read-out: TGI
[9] = test system: Mus musculus; test: Immunomodulatory effect in C57BL/6 mouse allografted mouse MC38 cells assessed as increase in tumor infiltrating lymphocytes by measuring increase in CD8+ T […] cells in tumor at 50 mg/kg, po treated 5 days after cell inoculation 19 th day by flow cytometry analysis (reference value: 2.32%); assay type: functional; settings: time 15 day
[10] = test system: MC-38; test: In vivo antitumor activity against mouse MC38 cells allografted in C57BL/6 mouse assessed as increase in Tunel-positive cells in tumor at 50 mg/kg, po treated 5 days after cell inoculation 19 th day by immunofluorescence analysis; assay type: functional, organism-based; settings: time 15.0 day
[11] = test system: Mus musculus; test: as §1, with “[…]” for “CD4+”, “20.3%)” for “15.5%)”; assay type: functional; settings: time 15 day
[12] = test system: Mus musculus; test: Immunomodulatory effect in C57BL/6 mouse allografted with mouse MC38 cells assessed as increase in tumor infiltrating lymphocytes by measuring increase in CD3+ CD4+ cells at 50 mg/kg, po treated 5 days after cell inoculation 19 th day by flow cytometry analysis; assay type: functional, organism-based; settings: time 15.0 day
[13] = test system: Mus musculus; test: Immunomodulatory effect in C57BL/6 mouse allografted mouse MC38 cells assessed as increase in tumor infiltrating lymphocytes by measuring increase in […] in mouse blood at 50 mg/kg, po treated 5 days after cell inoculation 19 th day by flow cytometry analysis (reference value: 0.35%); assay type: functional; settings: time 15 day
[14] = test system: Mus musculus; test: Immunomodulatory effect in C57BL/6 mouse allografted mouse MC38 cells assessed as increase in tumor infiltrating lymphocytes by measuring increase in CD4+ T helper cells in tumor at 50 mg/kg, po treated 5 days after cell inoculation 19 th day by flow cytometry analysis (reference value: 2.57%); assay type: functional; settings: time 15 day

For Cc1c(COc2cc(OCc3cccc(C#N)c3)c(CNC(C)(C)C(=O)O)cc2Cl)cccc1-c1ccccc1, the bioavailability [1] was less than 5%, the Activity [2] was “inactive” and the Activity [3] was 11.2%. For the same compound, the Activity [4] was 0.38%, the Activity [5] was 12.1% and the Activity [6] was “inactive”. The Activity [7] was 10.2%, the inhibition in vivo at 50 mg/kg [8] was 8% and the Activity [9] was 3.18%. For the same compound, the Activity [10] was “Active”, the Activity [11] was 18.9% and the Activity [12] was “inactive”. For the same compound, the Activity [13] was 0.42% and the Activity [14] was 2.69%.

Reference: ChEMBL document CHEMBL6121046, “Discovery of Novel Hydrazide-Based HDAC3 Inhibitors as Epigenetic Immunomodulators for Cancer Immunotherapy” (J Med Chem, 2025)
